Test results reported in patent publication US20220242870A1, “HETEROCYCLE-FUSED PYRIMIDINE DERIVATIVE AND USE THEREOF” (VORONOI Inc., priority 2019, published 2022).

Key:
GRK4 = target: T1, GRK4 (Homo sapiens, UniProt P32298); experiment: scanMAX kinase assay panel; type: binding; details: read-out: control percentage (% control)
T1 construct: purchased DiscoverX scanMAX kinase assay panel
Procedure: (§1) The activities of the compounds according to the present invention to more diverse enzymes were evaluated. Specifically, it was decided that the enzyme selectivity of Example 74 selected from the compounds of Examples 1 to 129 was measured at the request of DiscoverX, and the experiment was conducted using a scanMAX™ kinase assay panel. At this time, as a drug to treat the enzyme, a solution prepared by dissolving in DMSO at a concentration of 1 μM was used, and the control percentage (% control) was determined by the method of Equation 1 below, and the results were shown in Table 2 below.
(§2) In Equation above, the positive control and negative control mean compounds showing control percentages of 0% and 100% as DMSO, respectively.

CLK2 = target: T2, CLK2 (Homo sapiens, UniProt P49760); experiment: scanMAX kinase assay panel; type: binding; details: read-out: control percentage (% control)
T2 construct: purchased DiscoverX (scanMAX panel, contract assay)
Procedure: as §1, §2

CSNK1G2 = target: T3, CSNK1G2 (Homo sapiens, UniProt P78368); experiment: scanMAX kinase assay panel; type: binding; details: read-out: control percentage (% control)
T3 construct: purchased DiscoverX (scanMAX panel, contract assay)
Procedure: as §1, §2

KIT(L576P) = target: T4, KIT(L576P) (Homo sapiens, UniProt P10721, L576P); experiment: scanMAX kinase assay panel; type: binding; details: read-out: control percentage (% control)
T4 construct: purchased DiscoverX scanMAX kinase assay panel
Procedure: as §1, §2

[1] = target: T5, JAK3(JH1domain-catalytic) (Homo sapiens, UniProt P52333); experiment: scanMAX kinase assay panel; type: binding; details: read-out: control percentage (% control)
T5 construct: JAK3(JH1domain-catalytic); purchased DiscoverX scanMAX kinase assay panel
Procedure: as §1, §2

MAP3K3 = target: T6, MAP3K3 (Homo sapiens, UniProt Q99759); experiment: scanMAX kinase assay panel; type: binding; details: read-out: control percentage (% control)
T6 construct: purchased DiscoverX scanMAX kinase assay panel
Procedure: as §1, §2

ARK5 = target: T7, ARK5 (Homo sapiens, UniProt O60285); experiment: scanMAX kinase assay panel; type: binding; details: read-out: control percentage (% control)
T7 construct: purchased DiscoverX (scanMAX panel, contract assay)
Procedure: as §1, §2

CLK4 = target: T8, CLK4 (Homo sapiens, UniProt Q9HAZ1); experiment: scanMAX kinase assay panel; type: binding; details: read-out: control percentage (% control)
T8 construct: purchased DiscoverX (scanMAX panel, contract assay)
Procedure: as §1, §2

FLT3(K663Q) = target: T9, FLT3(K663Q) (Homo sapiens, UniProt P36888, K663Q); experiment: scanMAX kinase assay panel; type: binding; details: read-out: control percentage (% control)
T9 construct: purchased DiscoverX scanMAX kinase assay panel
Procedure: as §1, §2

JNK3 = target: T10, JNK3 (Homo sapiens, UniProt P53779); experiment: scanMAX kinase assay panel; type: binding; details: read-out: control percentage (% control)
T10 construct: purchased DiscoverX scanMAX kinase assay panel
Procedure: as §1, §2

ULK3 = target: T11, ULK3 (Homo sapiens, UniProt Q6PHR2); experiment: scanMAX kinase assay panel; type: binding; details: read-out: control percentage (% control)
T11 construct: purchased DiscoverX
Procedure: as §1, §2

FGR = target: T12, FGR (Homo sapiens, UniProt P09769); experiment: scanMAX kinase assay panel; type: binding; details: read-out: control percentage (% control)
T12 construct: purchased DiscoverX scanMAX kinase assay panel
Procedure: as §1, §2

STK16 = target: T13, STK16 (Homo sapiens, UniProt O75716); experiment: scanMAX kinase assay panel; type: binding; details: read-out: control percentage (% control)
T13 construct: purchased DiscoverX
Procedure: as §1, §2

MAP4K2 = target: T14, MAP4K2 (Homo sapiens, UniProt Q12851); experiment: scanMAX kinase assay panel; type: binding; details: read-out: control percentage (% control)
T14 construct: purchased DiscoverX scanMAX kinase assay panel
Procedure: as §1, §2

FLT3(ITD, D835V) = experiment: scanMAX kinase assay panel; type: binding; details: 1 μM
Procedure: as §1, §2

EGFR(L861Q) = target: T15, EGFR(L861Q) (Homo sapiens, UniProt P00533, L861Q); experiment: scanMAX kinase assay panel; type: binding; details: read-out: control percentage (% control)
T15 construct: purchased DiscoverX scanMAX kinase assay panel
Procedure: as §1, §2

MAP4K4 = target: T16, MAP4K4 (Homo sapiens, UniProt O95819); experiment: scanMAX kinase assay panel; type: binding; details: read-out: control percentage (% control)
T16 construct: purchased DiscoverX scanMAX kinase assay panel
Procedure: as §1, §2

NEK10 = target: T17, NEK10 (Homo sapiens, UniProt Q6ZWH5); experiment: scanMAX kinase assay panel; type: binding; details: read-out: control percentage (% control)
T17 construct: purchased DiscoverX scanMAX kinase assay panel
Procedure: as §1, §2

DCAMKL3 = target: T18, DCAMKL3 (Homo sapiens, UniProt Q9C098); experiment: scanMAX kinase assay panel; type: binding; details: read-out: control percentage (% control)
T18 construct: purchased DiscoverX (scanMAX panel, contract assay)
Procedure: as §1, §2

CLK1 = target: T19, CLK1 (Homo sapiens, UniProt P49759); experiment: scanMAX kinase assay panel; type: binding; details: read-out: control percentage (% control)
T19 construct: purchased DiscoverX (scanMAX panel, contract assay)
Procedure: as §1, §2

MET(M1250T) = target: T20, MET(M1250T) (Homo sapiens, UniProt P08581, M1250T); experiment: scanMAX kinase assay panel; type: binding; details: read-out: control percentage (% control)
T20 construct: purchased DiscoverX scanMAX kinase assay panel
Procedure: as §1, §2

TIE1 = target: T21, TIE1 (Homo sapiens, UniProt P35590); experiment: scanMAX kinase assay panel; type: binding; details: read-out: control percentage (% control)
T21 construct: purchased DiscoverX
Procedure: as §1, §2

ALK(C1156Y) = target: T22, ALK(C1156Y) (Homo sapiens, UniProt Q9UM73, C1156Y); experiment: scanMAX kinase assay panel; type: binding; details: read-out: control percentage (% control)
T22 construct: purchased DiscoverX (scanMAX panel, contract assay)
Procedure: as §1, §2

EGFR(L858R, T790M) = target: T23, EGFR(L858R, T790M) (Homo sapiens, UniProt P00533, L858R/T790M); experiment: scanMAX kinase assay panel; type: binding; details: read-out: control percentage (% control)
T23 construct: purchased DiscoverX scanMAX kinase assay panel
Procedure: as §1, §2

MET(Y1235D) = target: T24, MET(Y1235D) (Homo sapiens, UniProt P08581, Y1235D); experiment: scanMAX kinase assay panel; type: binding; details: read-out: control percentage (% control)
T24 construct: purchased DiscoverX scanMAX kinase assay panel
Procedure: as §1, §2

LCK = target: T25, LCK (Homo sapiens, UniProt P06239); experiment: scanMAX kinase assay panel; type: binding; details: read-out: control percentage (% control)
T25 construct: purchased DiscoverX scanMAX kinase assay panel
Procedure: as §1, §2

PYK2 = target: T26, PYK2 (Homo sapiens, UniProt Q14289); experiment: scanMAX kinase assay panel; type: binding; details: read-out: control percentage (% control)
T26 construct: purchased DiscoverX scanMAX kinase assay panel
Procedure: as §1, §2

INSR = target: T27, INSR (Homo sapiens, UniProt P06213); experiment: scanMAX kinase assay panel; type: binding; details: read-out: control percentage (% control)
T27 construct: purchased DiscoverX scanMAX kinase assay panel
Procedure: as §1, §2

MCF-7 cells = experiment: Breast cancer cell line proliferation inhibitory activity (CellTiter-Glo 2.0); type: cell-based; details: Homo sapiens, MCF7, 120 hours
Procedure, shortened: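 MCF-7 cells exposed to a 12-point, 3-fold dilution series (final 0.00005–10 μM) for 120 h at 37 °C. Viability read by CellTiter-Glo 2.0 luminescence, expressed as percent of vehicle-treated cells. GI50 (nM) derived from the curves.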

T15 sequence (P00533 25-1210 L861Q): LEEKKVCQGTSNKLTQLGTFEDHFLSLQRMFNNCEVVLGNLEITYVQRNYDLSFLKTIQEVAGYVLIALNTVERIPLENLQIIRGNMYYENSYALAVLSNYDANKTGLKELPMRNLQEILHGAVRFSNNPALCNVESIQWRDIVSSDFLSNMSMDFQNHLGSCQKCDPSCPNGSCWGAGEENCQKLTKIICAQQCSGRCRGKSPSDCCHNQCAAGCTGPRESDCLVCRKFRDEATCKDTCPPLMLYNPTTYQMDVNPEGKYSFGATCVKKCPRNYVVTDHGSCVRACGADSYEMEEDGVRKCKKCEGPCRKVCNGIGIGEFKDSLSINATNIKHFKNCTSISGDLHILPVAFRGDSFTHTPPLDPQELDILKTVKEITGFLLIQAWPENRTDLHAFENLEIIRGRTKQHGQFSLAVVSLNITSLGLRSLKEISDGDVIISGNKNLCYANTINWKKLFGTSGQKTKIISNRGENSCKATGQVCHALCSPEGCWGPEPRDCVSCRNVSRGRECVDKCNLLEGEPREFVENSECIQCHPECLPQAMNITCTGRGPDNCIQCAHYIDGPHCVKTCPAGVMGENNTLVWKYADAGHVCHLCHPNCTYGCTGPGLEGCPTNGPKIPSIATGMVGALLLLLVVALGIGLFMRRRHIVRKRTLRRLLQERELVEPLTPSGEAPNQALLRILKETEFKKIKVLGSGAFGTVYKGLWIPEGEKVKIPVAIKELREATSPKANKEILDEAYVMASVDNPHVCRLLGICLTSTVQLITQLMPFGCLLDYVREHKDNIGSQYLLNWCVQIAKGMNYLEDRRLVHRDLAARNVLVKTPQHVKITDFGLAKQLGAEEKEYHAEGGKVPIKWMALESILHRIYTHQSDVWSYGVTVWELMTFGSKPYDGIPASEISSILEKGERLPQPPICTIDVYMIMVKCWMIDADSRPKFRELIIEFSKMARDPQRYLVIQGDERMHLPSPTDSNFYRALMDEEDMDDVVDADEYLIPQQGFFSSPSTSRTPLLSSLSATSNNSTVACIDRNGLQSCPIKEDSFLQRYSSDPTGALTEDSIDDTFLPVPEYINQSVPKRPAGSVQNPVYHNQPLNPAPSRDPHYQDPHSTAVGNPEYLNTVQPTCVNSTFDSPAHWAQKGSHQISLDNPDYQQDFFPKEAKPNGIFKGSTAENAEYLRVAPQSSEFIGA
T11 sequence (Q6PHR2 whole entry): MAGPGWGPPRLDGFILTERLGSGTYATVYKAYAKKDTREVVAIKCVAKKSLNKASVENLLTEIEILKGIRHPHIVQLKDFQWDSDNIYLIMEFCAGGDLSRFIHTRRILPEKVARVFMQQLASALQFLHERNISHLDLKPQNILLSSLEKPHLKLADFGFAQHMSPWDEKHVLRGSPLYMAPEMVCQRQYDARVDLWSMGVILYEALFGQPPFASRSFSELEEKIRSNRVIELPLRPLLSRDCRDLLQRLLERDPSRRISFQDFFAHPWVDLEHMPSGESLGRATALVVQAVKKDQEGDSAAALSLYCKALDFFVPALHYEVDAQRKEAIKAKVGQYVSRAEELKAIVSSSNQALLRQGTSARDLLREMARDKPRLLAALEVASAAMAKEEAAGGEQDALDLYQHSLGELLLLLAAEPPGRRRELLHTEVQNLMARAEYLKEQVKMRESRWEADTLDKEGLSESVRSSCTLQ
T16 sequence (O95819 whole entry): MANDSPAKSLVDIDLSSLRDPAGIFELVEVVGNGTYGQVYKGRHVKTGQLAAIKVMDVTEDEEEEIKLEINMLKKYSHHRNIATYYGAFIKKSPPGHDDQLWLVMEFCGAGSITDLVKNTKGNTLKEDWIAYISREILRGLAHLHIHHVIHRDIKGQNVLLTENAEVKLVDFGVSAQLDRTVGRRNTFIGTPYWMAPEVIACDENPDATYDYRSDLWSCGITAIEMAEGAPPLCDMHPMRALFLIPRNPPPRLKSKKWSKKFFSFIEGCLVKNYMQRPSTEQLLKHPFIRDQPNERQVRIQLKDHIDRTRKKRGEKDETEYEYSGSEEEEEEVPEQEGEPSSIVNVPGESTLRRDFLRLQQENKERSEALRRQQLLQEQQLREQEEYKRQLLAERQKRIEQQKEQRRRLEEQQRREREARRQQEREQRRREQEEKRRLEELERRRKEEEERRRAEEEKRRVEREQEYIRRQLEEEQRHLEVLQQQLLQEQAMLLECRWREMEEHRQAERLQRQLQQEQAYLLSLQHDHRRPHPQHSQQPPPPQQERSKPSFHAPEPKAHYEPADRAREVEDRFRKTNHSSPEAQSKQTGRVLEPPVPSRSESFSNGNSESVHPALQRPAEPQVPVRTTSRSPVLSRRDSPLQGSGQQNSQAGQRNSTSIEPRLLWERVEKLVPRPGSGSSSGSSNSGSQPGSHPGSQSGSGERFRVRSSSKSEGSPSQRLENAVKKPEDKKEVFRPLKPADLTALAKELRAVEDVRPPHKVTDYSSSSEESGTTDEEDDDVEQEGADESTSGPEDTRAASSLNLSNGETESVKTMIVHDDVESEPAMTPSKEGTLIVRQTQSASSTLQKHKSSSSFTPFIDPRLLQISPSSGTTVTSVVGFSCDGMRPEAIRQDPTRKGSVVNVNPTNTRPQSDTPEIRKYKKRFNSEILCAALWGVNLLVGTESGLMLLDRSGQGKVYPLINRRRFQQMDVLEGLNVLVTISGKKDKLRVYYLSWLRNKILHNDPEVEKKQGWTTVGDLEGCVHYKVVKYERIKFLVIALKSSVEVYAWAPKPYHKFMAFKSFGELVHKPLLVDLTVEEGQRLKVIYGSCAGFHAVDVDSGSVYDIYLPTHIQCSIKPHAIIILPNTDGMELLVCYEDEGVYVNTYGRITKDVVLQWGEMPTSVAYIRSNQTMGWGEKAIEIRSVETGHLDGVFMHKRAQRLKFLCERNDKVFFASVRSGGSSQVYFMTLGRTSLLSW
T1 sequence (P32298 whole entry): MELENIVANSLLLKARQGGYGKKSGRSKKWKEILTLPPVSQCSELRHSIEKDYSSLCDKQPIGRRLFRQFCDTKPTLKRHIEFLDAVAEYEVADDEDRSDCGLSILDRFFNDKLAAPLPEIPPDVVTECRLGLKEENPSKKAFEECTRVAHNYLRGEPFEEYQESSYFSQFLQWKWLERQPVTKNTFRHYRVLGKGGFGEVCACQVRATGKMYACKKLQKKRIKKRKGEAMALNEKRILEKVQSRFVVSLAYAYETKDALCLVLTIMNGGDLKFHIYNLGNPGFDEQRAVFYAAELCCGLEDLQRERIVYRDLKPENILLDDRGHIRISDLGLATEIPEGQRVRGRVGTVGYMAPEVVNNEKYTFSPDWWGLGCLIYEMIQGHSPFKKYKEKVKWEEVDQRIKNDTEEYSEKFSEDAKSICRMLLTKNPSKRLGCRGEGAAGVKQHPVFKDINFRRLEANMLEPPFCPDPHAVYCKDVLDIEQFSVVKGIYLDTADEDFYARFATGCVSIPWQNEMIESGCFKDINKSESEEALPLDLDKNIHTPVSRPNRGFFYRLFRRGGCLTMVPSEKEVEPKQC
T7 sequence (O60285 whole entry): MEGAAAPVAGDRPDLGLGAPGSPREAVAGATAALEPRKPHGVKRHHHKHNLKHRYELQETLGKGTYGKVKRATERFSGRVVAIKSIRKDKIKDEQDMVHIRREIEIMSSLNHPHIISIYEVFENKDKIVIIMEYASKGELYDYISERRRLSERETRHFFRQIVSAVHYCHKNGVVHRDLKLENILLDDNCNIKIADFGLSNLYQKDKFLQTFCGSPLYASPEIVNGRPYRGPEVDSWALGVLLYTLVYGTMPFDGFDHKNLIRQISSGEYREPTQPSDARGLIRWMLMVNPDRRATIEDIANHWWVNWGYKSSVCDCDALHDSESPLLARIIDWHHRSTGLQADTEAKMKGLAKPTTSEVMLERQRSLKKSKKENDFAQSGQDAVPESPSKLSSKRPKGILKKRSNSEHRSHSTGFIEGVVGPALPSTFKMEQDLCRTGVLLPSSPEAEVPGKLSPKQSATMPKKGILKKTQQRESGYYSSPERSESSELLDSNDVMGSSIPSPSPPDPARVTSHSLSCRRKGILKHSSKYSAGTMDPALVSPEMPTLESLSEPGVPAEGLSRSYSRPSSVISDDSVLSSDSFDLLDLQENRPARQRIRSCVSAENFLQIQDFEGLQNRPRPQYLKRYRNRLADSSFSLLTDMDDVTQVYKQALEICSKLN
T6 sequence (Q99759 whole entry): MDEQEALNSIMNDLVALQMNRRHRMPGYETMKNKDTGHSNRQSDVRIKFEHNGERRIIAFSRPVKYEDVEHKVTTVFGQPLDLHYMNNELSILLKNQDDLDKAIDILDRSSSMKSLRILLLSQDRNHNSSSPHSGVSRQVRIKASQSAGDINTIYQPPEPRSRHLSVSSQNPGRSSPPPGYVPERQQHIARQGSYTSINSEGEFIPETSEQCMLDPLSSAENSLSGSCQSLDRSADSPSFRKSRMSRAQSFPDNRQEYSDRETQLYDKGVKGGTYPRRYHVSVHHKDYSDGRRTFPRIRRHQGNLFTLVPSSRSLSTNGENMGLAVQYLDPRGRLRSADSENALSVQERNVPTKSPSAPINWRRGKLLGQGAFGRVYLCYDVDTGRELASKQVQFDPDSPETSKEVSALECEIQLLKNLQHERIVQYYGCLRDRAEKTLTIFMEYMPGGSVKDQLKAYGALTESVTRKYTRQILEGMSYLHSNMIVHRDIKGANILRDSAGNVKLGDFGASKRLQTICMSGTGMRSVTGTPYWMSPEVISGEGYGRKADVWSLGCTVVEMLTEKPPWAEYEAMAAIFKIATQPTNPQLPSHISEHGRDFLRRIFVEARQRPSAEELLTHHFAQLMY
T13 sequence (O75716 whole entry): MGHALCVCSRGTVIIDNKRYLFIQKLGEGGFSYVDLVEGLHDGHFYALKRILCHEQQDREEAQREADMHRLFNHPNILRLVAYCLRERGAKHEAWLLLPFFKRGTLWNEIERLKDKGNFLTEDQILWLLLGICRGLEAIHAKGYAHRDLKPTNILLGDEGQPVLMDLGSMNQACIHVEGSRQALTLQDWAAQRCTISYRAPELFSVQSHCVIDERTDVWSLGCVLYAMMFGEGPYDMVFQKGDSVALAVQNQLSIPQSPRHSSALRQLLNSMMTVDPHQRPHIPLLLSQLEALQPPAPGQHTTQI

`CN1CCN(c2ccc(Nc3nc(N4OCC[C@H]4c4ccccc4)c4cc[nH]c4n3)cc2)CC1` [Example 74, (S)-N-(4-(4-methylpiperazin-1-yl)phenyl)-4-(3-phenylisoxazolidin-2-yl)-7H-pyrrolo[2,3-d]pyrimidin-2-amine] was tested, and the remaining binding at 1 µM (GRK4) was 9.3%, the remaining binding at 1 µM (CLK2) was 9.2% and the remaining binding at 1 µM (CSNK1G2) was 21%. It also gave a remaining binding at 1 µM (KIT(L576P)) of 31%, a remaining binding at 1 µM [1] of 0% and a remaining binding at 1 µM (MAP3K3) of 25%. It also gave a remaining binding at 1 µM (ARK5) of 8.9%, a remaining binding at 1 µM (CLK4) of 6.4% and a remaining binding at 1 µM (FLT3(K663Q)) of 2.3%. It also gave a remaining binding at 1 µM (JNK3) of 4.5%, a remaining binding at 1 µM (ULK3) of 13% and a remaining binding at 1 µM (FGR) of 17%. For the same compound, the remaining binding at 1 µM (STK16) was 26%, the remaining binding at 1 µM (MAP4K2) was 12% and the “control percentage (% control)” value (FLT3(ITD, D835V)) was 0%. For the same compound, the remaining binding at 1 µM (EGFR(L861Q)) was 30%, the remaining binding at 1 µM (MAP4K4) was 30% and the remaining binding at 1 µM (NEK10) was 0%. It also gave a remaining binding at 1 µM (DCAMKL3) of 15%, a remaining binding at 1 µM (CLK1) of 3.4% and a remaining binding at 1 µM (MET(M1250T)) of 11%. It also gave a remaining binding at 1 µM (TIE1) of 16%, a remaining binding at 1 µM (ALK(C1156Y)) of 15% and a remaining binding at 1 µM (EGFR(L858R, T790M)) of 17%. For the same compound, the remaining binding at 1 µM (MET(Y1235D)) was 7%, the remaining binding at 1 µM (LCK) was 12% and the remaining binding at 1 µM (PYK2) was 27%. The remaining binding at 1 µM (INSR) was 19% and the GI50 (MCF-7 cells) was > 500 nM.
